According to US20120010075A1 (priority 2009, published 2012):
Like-named read-outs stand apart in the source and are kept apart here.

Legend:
[1] = system: Phytophthora infestans; format: in vivo, Phytophthora infestans on tomato; settings: applied 24 h before inoculation, assessed 7 days after inoculation
[2] = system: Ustilago maydis; test: In vitro fungitoxicity of hydrazones with and without copper towards Ustilago maydis (Example 29, Table 4); format: cell-based; settings: 1 μg/mL, 48 h; for % Inhn. Plus copper Observed: copper-plus medium (CuCl2, 10 μM); for inhibition of growth at 1 µg/mL: Mycosarcoma maydis, copper-minus medium, read-out: % Inhn. Minus copper Observed
[3] = system: Leptosphaeria nodorum (LEPTNO); test: In vitro fungitoxicity of hydrazones with and without copper towards Leptosphaeria nodorum (Example 26); format: cell-based; settings: 72 h at 25° C.; for inhibition of growth at 0.05 µg/mL: Parastagonospora nodorum, 72 h, copper-minus medium, read-out: LEPTNO % Inhn. Minus Copper Observed
[4] = system: Phytophthora capsici; test: In vitro fungitoxicity of hydrazones with and without copper towards Phytophthora capsici (Example 28, Table 3); format: cell-based; settings: 0.050 μg/mL, 48 h; for % Inhn Plus copper Observed: copper-plus AS medium (CuCl2, 50 μM); for inhibition of growth at 0.05 µg/mL: Phytophthora capsici, copper-minus AS medium, read-out: % Inhn Minus copper Observed
[5] = system: Leptosphaeria nodorum (LEPTNO); test: Isolated metal-hydrazone complexes versus parent hydrazones, in vitro, Leptosphaeria nodorum (Example 31, Table 7); format: cell-based; settings: Parastagonospora nodorum; 0.1 μg/mL; copper-minus medium; 72 h
[6] = system: Septoria tritici isolate USA-184; test: In vitro fungitoxicity of hydrazones with and without copper towards Septoria tritici (Example 30, Table 5); format: cell-based; settings: Zymoseptoria tritici, 0.05 μg/mL
[7] = system: Alternaria solani; test: Compound 16 and copper materials against tomato early blight (Example 37, Tables 17-20); format: in vivo, Alternaria solani on tomato (Outdoor Girl)
[8] = system: Colletotrichum lagenarium; test: Compound 16 and copper materials against cucumber anthracnose (Example 37, Tables 21-24); format: in vivo, Colletotrichum lagenarium on cucumber (Bush Pickle)
[9] = hydrazone 50 ppm with 50 μM CuCl2.2H2O, tomato late blight
[10] = test compound Concn. 0.05 μg/mL
[11] = copper-plus medium (CuCl2 10 μM), test compound Concn. 0.05 μg/mL
[12] = Colby formula, CuCl2, read-out: % Inhibition Plus copper Predicted
[13] = copper-minus medium, 90 h, read-out: % Inhibition Minus copper Observed
[14] = copper-plus medium CuCl2, 90 h, read-out: % Inhibition Plus copper Observed
[15] = hydrazone 50 ppm + 50 μM CuCl2.2H2O, tomato
[16] = compound 0.05 μg/mL, copper-plus medium (CuCl2.2H2O)

| SMILES | TLB % Control [1, 9] | inhibition of growth at 0.05 µg/mL [3, 10] | LEPTNO % Inhn. Plus Copper Observed [3, 11] | inhibition at 0.1 µg/mL [5] | melting point | TLB % Control [1, 15] | inhibition of growth at 0.05 µg/mL ([3]; compound 0.05 μg/mL) | LEPTNO % Inhn. Plus Copper Observed [3, 16] | further results |
| --- | --- | --- | --- | --- | --- | --- | --- | --- | --- |
| O=C(N/N=C/c1cc(C(F)(F)F)cc(C(F)(F)F)c1O)c1ccc(Cl)cc1 [Example 337] | 97.0% | 22.4% | 98.0% | 39.9% | 233 to 236 °C |  |  |  | % Inhn. Plus copper Observed [2]: 97.8%; inhibition of growth at 1 µg/mL [2]: 22%; % Inhn Plus copper Observed [4]: 42.1%; inhibition of growth at 0.05 µg/mL [4]: 4.7%; inhibition at 0.05 µg/mL [6, 12]: 46.8%; inhibition at 0.05 µg/mL [6, 13]: 46.8%; inhibition at 0.05 µg/mL [6, 14]: 97.1% |
| O=C(N/N=C/c1cccc(Cl)c1O)c1ccc(Cl)cc1 [Example 428] | 97.0% | 44.1% | 98.4% | 29.9% | 217 to 219 °C |  |  |  |  |
| O=C(N/N=C/c1cccc(Cl)c1O)c1ccccc1 [Example 231] |  |  |  | 10.7% | 188 to 189 °C | 81.3% | 0% | 98.5% |  |
| C/C(=N\NC(=O)c1ccc(Cl)cc1)c1cc(Cl)cc(Cl)c1O [Example 136] |  |  |  | 34.7% | 260 to 262 °C | 95.0% | 9.7% | 98.6% |  |
| COc1cccc(/C(C)=N/NC(=O)c2cccc(Cl)c2)c1O [Example 304] | 77.0% | 0% | 97.9% | 13.3% | 146 to 148 °C |  |  |  |  |
| C/C(=N\NC(=O)c1ccccc1C)c1cc(Cl)cc(Cl)c1O [Example 137] |  |  |  | 27.2% | 226 to 230 °C | 74.0% | 4.5% | 98.5% |  |
| O=C(N/N=C/c1cc(Cl)cc(C(F)(F)F)c1O)c1ccc(Cl)cc1 [Example 381] | 100.0% | 31.8% | 98.6% | 43.9% | 232 to 234 °C |  |  |  |  |
| O=C(N/N=C/c1cc(Cl)cc(C(F)(F)F)c1O)c1ccccc1 [Example 320] | 100.0% | 17.1% | 96.4% | 22.1% | 225 to 226 °C |  |  |  | % Inhn. Plus copper Observed [2]: 95.2%; inhibition of growth at 1 µg/mL [2]: 0%; % Inhn Plus copper Observed [4]: 81.4%; inhibition of growth at 0.05 µg/mL [4]: 2.9%; inhibition at 0.05 µg/mL [6, 12]: 9.5%; inhibition at 0.05 µg/mL [6, 13]: 9.5%; inhibition at 0.05 µg/mL [6, 14]: 92.1% |
| O=C(N/N=C/c1cc(C(F)(F)F)ccc1O)c1ccccc1 [Example 277] |  |  |  | 0.6% | 214 to 217 °C | 86.4% | 1.9% | 97.5% | % Inhn. Plus copper Observed [2]: 83.5%; inhibition of growth at 1 µg/mL [2]: 1.7%; % Inhn Plus copper Observed [4]: 88.2%; inhibition of growth at 0.05 µg/mL [4]: 0%; inhibition at 0.05 µg/mL [6, 12]: 3.6%; inhibition at 0.05 µg/mL [6, 13]: 3.6%; inhibition at 0.05 µg/mL [6, 14]: 88% |
| C/C(=N\NC(=O)c1ccccc1)c1cc(Cl)cc(Cl)c1O [Example 60] |  |  |  | 23.3% |  | 85.0% | 7.3% | 97.5% | % Inhn. Plus copper Observed [2]: 93.5%; inhibition of growth at 1 µg/mL [2]: 0%; % Inhn Plus copper Observed [4]: 76.4%; inhibition of growth at 0.05 µg/mL [4]: 4.1%; inhibition at 0.05 µg/mL [6, 12]: 20.6%; inhibition at 0.05 µg/mL [6, 13]: 20.6%; inhibition at 0.05 µg/mL [6, 14]: 94.8% |
| COc1cccc(/C(C)=N/NC(=O)c2ccccc2Cl)c1O [Example 303] | 45.0% | 0% | 98.0% | 10.6% | 233 to 234 °C |  |  |  |  |
| O=C(N/N=C/c1ccc(Cl)c(Cl)c1O)c1ccccc1 [Example 238] |  |  |  | 20% | 249 to 252 °C | 92.5% | 0.5% | 97.6% |  |
| COc1cccc(/C(C)=N/NC(=O)c2ccc(C)cc2)c1O [Example 302] | 82.0% | 0% | 96.4% | 22.9% | 146 to 148 °C |  |  |  |  |
| O.O.[Cl][Cu][Cl] [CuCl2•2H2O] |  |  |  |  |  |  |  |  | % Control of Tomato Early Blight ([7]; copper material 10 μM alone): 0.0%; % Control of Tomato Early Blight ([7]; copper material 50 μM alone): 0.0%; % Control of Tomato Early Blight ([7]; copper material 200 μM alone): 50.4%; % Control of Tomato Early Blight ([7]; copper material 400 μM alone): 72.5%; % Control of Tomato Early Blight ([7]; copper material 800 μM alone): 83.3%; % Control of Cucumber Anthracnose ([8]; copper material 10 μM alone): 9.6%; % Control of Cucumber Anthracnose ([8]; copper material 50 μM alone): 1.4%; % Control of Cucumber Anthracnose ([8]; copper material 200 μM alone): 37.2%; % Control of Cucumber Anthracnose ([8]; copper material 400 μM alone): 76.2%; % Control of Cucumber Anthracnose ([8]; copper material 800 μM alone): 90.0% |
| C/C(=N\NC(=O)c1cccc(Cl)c1)c1cc(Cl)cc(Cl)c1O [Example 135] |  |  |  | 20.6% | 245 to 246 °C | 96.0% | 0.2% | 98.6% |  |
| O=C(N/N=C/c1c(Cl)ccc(Cl)c1O)c1ccc(Cl)cc1 [Example 370] | 91.0% | 3.5% | 97.5% | 23.1% | 271 to 273 °C |  |  |  |  |
| O=C(N/N=C/c1cc(Cl)ccc1O)c1ccccc1 [Example 20] |  |  |  | 14.7% |  | 96.5% | 2.8% | 96.5% | % Inhn. Plus copper Observed [2]: 91.0%; inhibition of growth at 1 µg/mL [2]: 1.2%; % Inhn Plus copper Observed [4]: 90.4%; inhibition of growth at 0.05 µg/mL [4]: 2.1%; inhibition at 0.05 µg/mL [6, 12]: 0%; inhibition at 0.05 µg/mL [6, 13]: 0%; inhibition at 0.05 µg/mL [6, 14]: 95.3% |
| O.O.O.O.O.O=S(=O)([O-])[O-].[Cu+2] [CuSO4•5H2O] |  |  |  |  |  |  |  |  | % Control of Tomato Early Blight ([7]; copper material 10 μM alone): 0.0%; % Control of Tomato Early Blight ([7]; copper material 50 μM alone): 7.1%; % Control of Tomato Early Blight ([7]; copper material 200 μM alone): 54.4%; % Control of Tomato Early Blight ([7]; copper material 400 μM alone): 64.1%; % Control of Tomato Early Blight ([7]; copper material 800 μM alone): 71.6%; % Control of Cucumber Anthracnose ([8]; copper material 10 μM alone): 1.4%; % Control of Cucumber Anthracnose ([8]; copper material 50 μM alone): 0.0%; % Control of Cucumber Anthracnose ([8]; copper material 200 μM alone): 61.3%; % Control of Cucumber Anthracnose ([8]; copper material 400 μM alone): 75.7%; % Control of Cucumber Anthracnose ([8]; copper material 800 μM alone): 87.1% |
